Data as given in ChEMBL document CHEMBL1152357, “Synthesis and biological activity of heteroaryl 3-(1,1-dioxo-2H-(1,2,4)-benzothiadizin-3-yl)-4-hydroxy-2(1H)-quinolinone derivatives as hepatitis C virus NS5B polymerase inhibitors” (Bioorg Med Chem Lett, 2009).

Columns and labels:
[1] = system: Hepatitis C virus; assay: Antiviral activity against HCV 1b infected in human hepatoma cells by replicon assay; format: functional, organism-based, Hepacivirus hominis; details: genotype 1b
[2] = molecular target: Albumin (Homo sapiens, UniProt P02768); assay: Binding affinity to human serum albumin; format: ADME; details: isolated protein
[3] = system: Hepatitis C virus; assay: Inhibition of HCV 1b NS5B polymerase expressed in Sf9 cells; set-up: species or system Hepatitis C virus subtype 1b

Chain of Albumin (P02768 whole entry): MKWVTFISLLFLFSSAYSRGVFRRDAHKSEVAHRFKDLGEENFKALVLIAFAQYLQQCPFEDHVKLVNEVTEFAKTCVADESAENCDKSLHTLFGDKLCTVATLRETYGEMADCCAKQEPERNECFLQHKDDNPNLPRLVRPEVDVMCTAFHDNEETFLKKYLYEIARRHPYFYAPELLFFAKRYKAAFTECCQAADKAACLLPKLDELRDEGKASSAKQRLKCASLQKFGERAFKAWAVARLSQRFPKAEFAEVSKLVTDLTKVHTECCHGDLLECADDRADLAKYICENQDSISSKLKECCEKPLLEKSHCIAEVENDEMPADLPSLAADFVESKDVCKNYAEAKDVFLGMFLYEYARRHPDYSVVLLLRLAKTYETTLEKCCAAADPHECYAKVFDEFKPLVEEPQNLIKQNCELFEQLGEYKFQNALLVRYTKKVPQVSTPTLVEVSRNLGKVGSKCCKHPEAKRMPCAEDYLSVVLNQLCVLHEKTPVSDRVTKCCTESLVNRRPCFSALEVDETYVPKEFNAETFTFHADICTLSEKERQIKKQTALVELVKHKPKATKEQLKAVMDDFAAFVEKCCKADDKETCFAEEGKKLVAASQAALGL

Row | Structure (SMILES) | IC50 [1] [nM] | Activity [2] [%] | IC50 [3] [nM]
1 | CC(C)CCn1c(=O)c(C2=NS(=O)(=O)c3ccccc3N2)c(O)c2ccccc21 | 417 | > 99.9 | 
2 | CC(C)CCn1c(=O)c(C2=NS(=O)(=O)c3ccccc3N2)c(O)c2cccnc21 | 1360 | > 99.9 | 212
3 | CC(C)CCn1c(=O)c(C2=Nc3ccc(OCC(N)=O)cc3S(=O)(=O)N2)c(O)c2cccnc21 | 52 | 98.4 | < 5
4 | CC(C)CCn1c(=O)c(C2=NS(=O)(=O)c3cc(O)ccc3N2)c(O)c2cccnc21 | 473 | 99 | 16
5 | CC(C)CCn1c(=O)c(C2=NS(=O)(=O)c3cc(OCC(N)=O)ccc3N2)c(O)c2ccsc21 | 238 | 98.7 | < 5
6 | CC(C)CCn1c(=O)c(C2=NS(=O)(=O)c3ccccc3N2)c(O)c2cnn(C)c21 |  | 97 | 3340
7 | CSc1ncc2c(O)c(C3=NS(=O)(=O)c4ccccc4N3)c(=O)n(CCC(C)C)c2n1 |  |  | > 30000
8 | CC(C)CCn1c(=O)c(C2=NS(=O)(=O)c3ccccc3N2)c(O)c2cc(Br)sc21 |  | > 99.9 | 1170
9 | CC(C)CCn1c(=O)c(C2=NS(=O)(=O)c3cccnc3N2)c(O)c2ccccc21 | 1680 |  | 51
10 | CC(C)CCn1c(=O)c(C2=NS(=O)(=O)c3cc(O)ccc3N2)c(O)c2sccc21 | 1190 | 99 | 16
11 | CC(C)CCn1c(=O)c(C2=NS(=O)(=O)c3ccccc3N2)c(O)c2sccc21 | 942 | > 99.9 | > 48
12 | O=c1c(C2=NS(=O)(=O)c3cc(O)ccc3N2)c(O)c2cccnc2n1CCC1CC1 | 542 | 98.8 | 12
13 | CC(C)CCn1c(=O)c(C2=NS(=O)(=O)c3cc(OCC(N)=O)ccc3N2)c(O)c2ccccc21 | 15 | 99.2 | 6
14 | NC(=O)COc1ccc2c(c1)S(=O)(=O)N=C(c1c(O)c3cccnc3n(CCC3CC3)c1=O)N2 | 51 | 97.8 | < 5
15 | CC(C)CCn1c(=O)c(C2=NS(=O)(=O)c3cc(O[C@H](C)C(N)=O)ccc3N2)c(O)c2sccc21 | 114 | 98.3 | < 5
16 | CC(C)CCn1c(=O)c(C2=NS(=O)(=O)c3c[n+]([O-])ccc3N2)c(O)c2ccccc21 | 2380 | 97.7 | 18
17 | CC(C)CCn1c(=O)c(C2=NS(=O)(=O)c3ccccc3N2)c(O)c2ccsc21 | 1160 | > 99.9 | 132
18 | CC(C)CCn1c(=O)c(C2=NS(=O)(=O)c3c(sc(Cl)c3Br)N2)c(O)c2ccccc21 |  |  | 3020
19 | CC(C)CCn1c(=O)c(C2=NS(=O)(=O)c3cc(OCC(N)=O)ccc3N2)c(O)c2sccc21 | 126 | 98.3 | < 5
20 | CC(C)CCn1c(=O)c(C2=NS(=O)(=O)c3cc(O[C@H](C)C(N)=O)ccc3N2)c(O)c2cccnc21 | 47 | 98.3 | < 5
21 | CC(C)CCn1c(=O)c(C2=NS(=O)(=O)c3ccccc3N2)c(O)c2cc(-c3ccccc3)sc21 |  |  | > 30000
22 | CC(C)CCn1c(=O)c(C2=NS(=O)(=O)c3cc(O)ccc3N2)c(O)c2ccsc21 | 471 | 99.1 | 25
23 | CC(C)CCn1c(=O)c(C2=NS(=O)(=O)c3ccccc3N2)c(O)c2cn[nH]c21 |  | 97.6 | 4940
24 | C[C@@H](Oc1ccc2c(c1)S(=O)(=O)N=C(c1c(O)c3cccnc3n(CCC3CC3)c1=O)N2)C(N)=O |  | 97.8 | < 5

Further lines, results first:

Row | IC50 [1] [nM] | Activity [2] [%] | IC50 [3] [nM] | Structure (SMILES)
25 | 40000 | 97.9 | 679 | CCN1CCC2=C(C1)S(=O)(=O)N=C(c1c(O)c3ccccc3n(CCC(C)C)c1=O)N2
26 | > 30000 | 98.7 | 289 | CC(C)CCn1c(=O)c(C2=NS(=O)(=O)C3=C(CCN(CCc4nnn[nH]4)C3)N2)c(O)c2ccccc21
27 |  | 98 | 1530 | CC(=O)N1CCC2=C(C1)S(=O)(=O)N=C(c1c(O)c3ccccc3n(CCC(C)C)c1=O)N2
28 |  | 98.3 | 728 | CC(C)CCn1c(=O)c(C2=NS(=O)(=O)C3=C(CCN(CCCN)C3)N2)c(O)c2ccccc21
29 | > 20000 | 98 | 288 | CC(C)CCn1c(=O)c(C2=NS(=O)(=O)C3=C(CCN(CCC(N)=O)C3)N2)c(O)c2ccccc21
30 | 2890 | 99.5 | 20 | CC(C)CCn1c(=O)c(C2=NS(=O)(=O)c3ccsc3N2)c(O)c2ccccc21
31 |  | 97.6 | 879 | COC(=O)CN1CCC2=C(C1)S(=O)(=O)N=C(c1c(O)c3ccccc3n(CCC(C)C)c1=O)N2
32 | 13700 |  | 16 | CC(C)CCn1c(=O)c(C2=NS(=O)(=O)c3c(cc[nH]c3=O)N2)c(O)c2ccccc21
33 |  | 99.4 | 975 | CC(C)CCn1c(=O)c(C2=NS(=O)(=O)C3=C(CCN(C(=O)Nc4ccccc4)C3)N2)c(O)c2ccccc21
34 | 226 | 99 | 20 | CC(C)CCn1c(=O)c(C2=NS(=O)(=O)c3cnccc3N2)c(O)c2ccccc21
35 | 12200 | 98.2 | 604 | CC(C)CCn1c(=O)c(C2=NS(=O)(=O)C3=C(CCNC3)N2)c(O)c2ccccc21
36 | > 20000 | 98.5 | 200 | Cc1nn(C)c2c1S(=O)(=O)N=C(c1c(O)c3ccccc3n(CCC(C)C)c1=O)N2
37 | 4320 |  | 132 | CC(C)CCn1c(=O)c(C2=NS(=O)(=O)C3=C(CCN(CCC#N)C3)N2)c(O)c2ccccc21
38 | > 20000 |  | 57 | CC(C)CCn1c(=O)c(C2=NS(=O)(=O)c3cc(Cl)sc3N2)c(O)c2ccccc21
39 | > 20000 |  | 276 | CC(C)CCn1c(=O)c(C2=NS(=O)(=O)C3=C(CCN(CC(=O)O)C3)N2)c(O)c2ccccc21
40 |  | 98.2 | 774 | CNC(=O)N1CCC2=C(C1)S(=O)(=O)N=C(c1c(O)c3ccccc3n(CCC(C)C)c1=O)N2
41 | 743 | 98.7 | 31 | CC(C)CCn1c(=O)c(C2=NS(=O)(=O)c3ncccc3N2)c(O)c2ccccc21
